Data: paper PMC12163684, “Gunacins: Novel Benzo[g]chromene Derivatives from the Fungus Exobasidium sp. and Their Potent Anti-Leishmania and Trypanosoma Activities” (ACS Omega, 2025)
Converted amounts (≈) assume the structure as drawn.

Experiments:
[1] = system: T. b. gambiense LiTat 1.3; experiment: Anti-trypanosomal activity, resazurin (AB assay), bloodstream form; format: cell-based, T. brucei gambiense; conditions: Trypanosoma brucei, 72 h, axenic, 48 h + 24 h resazurin
Method: (§1) The bloodstream forms of T. b. gambiense LiTat 1.3, T. b. brucei 427, and T. b. evansi AnTat 3/3 were grown in HMI-11 medium pH 7.3 supplemented with 36 mM sodium bicarbonate, 100 U/mL penicillin/streptomycin, and 10% fetal bovine serum at 37 °C and 5% CO2. The bloodstream form of Trypanosoma congolense IL3000 (generous gift from Liam Morrison) was cultured in TcBSF-1 medium pH 7.3 supplemented with 26 mM sodium bicarbonate, 25 mM HEPES, 5.5 mM glucose, 1 mM sodium pyruvate, 0.04 mM adenosine, 0.1 mM hypoxanthine, 0.02 mM thymidine, 0.02 mM bathocuproine, 2 mM L-glutamine, 0.2 mM 2-mercaptoethanol, 100 U/ml penicillin/streptomycin, and 20% goat serum New Zealand origin (Gibco) at 34 °C, 5% CO2. The assay for anti-trypanosomal activity was performed using the resazurin sodium salt dye (AB Assay) according to the published protocol in a 96-well plate format. Parasites at a number of 5 × 10^3 per well (T. b. brucei and T. b. gambiense) or 1 × 10^4 per well (T. b. evansi) were incubated with different drug concentrations (2-fold serial dilutions) in a volume of 200 μL of the medium. Medium with 1% DMSO (the highest concentration of the solvent used in the assay) was used to confirm no effect of the solvent on the cell growth. The plates were incubated for 48 h at the appropriate temperature. Then, 20 μL of resazurin sodium salt solution (0.125 mg/mL in 1× PBS, pH 7. 4) was added to each well, and the cells were incubated for another 24 h under the same conditions. The fluorescence signal was quantified using a Tecan Infinite M200 plate reader at excitation and emission wavelengths of 560 and 590 nm, respectively. The EC50 values were calculated using GraphPad Prism 9.5.1 by nonlinear regression with a variable slope. Each EC50 value is the mean ± standard error of the mean of three separate experiments performed in duplicate.

T. b. evansi AnTat 3/3 = experiment: as above; format: cell-based, T. brucei evansi; conditions: Trypanosoma brucei, 72 h, axenic, 48 h + 24 h resazurin
Method: as §1

[2] = system: primary human skin fibroblasts; experiment: Effect on cell morphology, fluorescence microscopy (MitoTracker Red CMXRos, Phalloidin, DAPI); format: cell-based; conditions: 24 h; for concentration at which effects on morphology / mitochondrial signal were observed, fibroblasts: tested at 5, 25, 50, 100, 125 μM
Method: (§2) MDCK and RAT cells were cultured in DMEM with 10% FBS at 37 °C in a 5% CO2 atmosphere as described previously. , To assess the toxic effects of the compounds on proliferating cells, cells were seeded in 24-well plates for 24 h to reach ∼15% confluence, and cells were treated in triplicate with increasing concentrations of the isolated compounds for an additional 24 h. Cells were washed with 1× PBS, fixed in staining solution (0.5% crystal violet, 20% methanol) for 10 min, and gently washed five times in 1× PBS. The fixed cells were then dissolved in lysis solution (0.1 M sodium citrate, 25% ethanol, pH 4.2) for 30 min, transferred to a 96-well plate in H2O, and the OD^590 was determined. EC50 values were determined using GraphPad Prism software and the dose–response fit equation. The EC50 values were determined from two independent experiments. Additionally, the impact of the isolated substances on the morphology of the HeLa adenocarcinoma cell line and primary human skin fibroblasts was examined by using fluorescence microscopy. Cells were cultured in DME medium supplemented with 10% FCS (Gibco, Invitrogen, Carlsbad, USA) on glass coverslips in 24-well plates until reaching approximately 50% confluence. The cells were treated with varying concentrations of isolated compounds dissolved in DMSO. Wells containing DMEM with DMSO served as the negative control. After 24 h cultivation, the cells were incubated with MitoTracker Red CMXRos (10 min) to label mitochondria, then fixed with 3.7% paraformaldehyde in PBS (20 min, room temperature), permeabilized with 0.1% Triton X-100 in PBS, and blocked with 1% BSA in PBS. The cells were then stained with Phalloidin-Alexa Fluor488 conjugate. All fluorescence reagents were purchased from Molecular Probes, Invitrogen, Carlsbad, CA, USA. Nuclei were stained with Fluoroshield DAPI (Sigma-Aldrich), and cells were examined using an IX71 microscope equipped with a DP70 camera and a 40× objective. Assays were performed at concentrations of 5, 25, 50, 100, and 125 μM.

[3] = system: HeLa adenocarcinoma cell line; experiment: as above; format: cell-based; conditions: 24 h; for concentration at which effects on morphology / mitochondrial signal were observed, HeLa cells: tested at 5, 25, 50, 100, 125 μM
Method: as §2

C. neoformans CCF 1081 = experiment: Minimum inhibitory concentration (MIC) testing, serial binary dilution in 96-well plates; format: cell-based; conditions: Cryptococcus neoformans, CCF1081; 24 h in the dark; n.d. = activity not detected; highest tested concentration 66.7 μM
Method: (§3) Minimum inhibitory concentration (MIC) testing of the extracts was performed using 96-well polypropylene plates against four different microorganisms: the Gram-positive bacterium K. rhizophila ATCC 9341, the Gram-negative bacterium E. coli ATCC 3988, and the yeasts C. albicans CCM 8215 and C. neoformans CCF 1081.
(§4) A working inoculum of each microorganism was prepared as follows: for E. coli and K. rhizophila, the inoculum was grown in LB medium (LB Broth, 25 g/L, incubated at 36 °C); for C. albicans and C. neoformans, YM6.3 medium (maltose extract 10 g, glucose 4 g, yeast extract 4 g per 1 L distilled water, incubated at 24 °C) with a cell concentration of approximately 5 × 10^5 cells/mL for all microorganisms was used.
(§5) Chloramphenicol served as a positive control for bacteria, while cycloheximide was used as a positive control for fungi. The gradient of the test substances was established by serial binary dilution across the wells. The MIC was determined by identifying the lowest concentration at which no live microorganisms were present. Cultivation was performed in the dark for 24 h.

K. rhizophila ATCC 9341 = experiment: as above; format: cell-based; conditions: Kocuria rhizophila, ATCC9341; 24 h in the dark; lowest concentration with no live microorganisms
Method: as §3, §4, §5

C. albicans CCM 8215 = experiment: as above; format: cell-based; conditions: Candida albicans, CCM8215; 24 h in the dark; n.d. = activity not detected; highest tested concentration 66.7 μM
Method: as §3, §4, §5

E. coli ATCC 3988 = experiment: as above; format: cell-based; conditions: Escherichia coli, ATCC3988; 24 h in the dark; lowest concentration with no live microorganisms
Method: as §3, §4, §5

Structure (SMILES): COc1cc(O)c2c(c1)C(=O)C1=C(C2=O)[C@H](O)[C@@H](O)[C@@H](C)O1 (relative stereo) [Compound 3, (2R,3R,4S)-3,4,6-trihydroxy-8-methoxy-2-methyl-3,4-dihydro-2H-benzo[g]chromene-5,10-dione]
- EC50 [1]: 4100 nM
- EC50 (T. b. evansi AnTat 3/3): 4200 nM
- concentration at which effects on morphology / mitochondrial signal were observed, fibroblasts [2]: 125 μM
- concentration causing complete loss of live adherent cells, HeLa cells [3]: 125 µM
- concentration at which effects on morphology / mitochondrial signal were observed, HeLa cells [3]: 25 μM
- MIC (C. neoformans CCF 1081): > 66.7 µM
- MIC (K. rhizophila ATCC 9341): 8.3 µM (≈ 2.54 µg/mL)
- MIC (C. albicans CCM 8215): > 66.7 µM
- MIC (E. coli ATCC 3988): 2.1 µM (≈ 0.643 µg/mL)

Structure (SMILES): COc1cc(O)c2c(c1)C(=O)C1=C(C2=O)[C@@H](OC(C)=O)[C@@H](O)[C@@H](C)O1 [Compound 1, (2R,3S,4R)-3,6-dihydroxy-8-methoxy-2-methyl-5,10-dioxo-3,4,5,10-tetrahydro-2H-benzo[g]chromen-4-yl acetate]
- EC50 [1]: 40 nM
- EC50 (T. b. evansi AnTat 3/3): 30 nM
- concentration at which effects on morphology / mitochondrial signal were observed, fibroblasts [2]: 5 μM
- concentration at which effects on morphology / mitochondrial signal were observed, HeLa cells [3]: 125 μM
- MIC (C. neoformans CCF 1081): 33.3 µM
- MIC (K. rhizophila ATCC 9341): 1 µM
- MIC (C. albicans CCM 8215): 33.3 µM
- MIC (E. coli ATCC 3988): 1 µM

Structure (SMILES): COc1cc(O)c2c(c1)C(=O)C1=C(C2=O)[C@@H](O)[C@@H](OC(C)=O)[C@@H](C)O1 [Compound 5, (2R,3R,4R)-4,6-dihydroxy-8-methoxy-2-methyl-5,10-dioxo-3,4,5,10-tetrahydro-2H-benzo[g]chromen-3-yl acetate]
- EC50 [1]: 30 nM
- EC50 (T. b. evansi AnTat 3/3): 40 nM
- concentration at which effects on morphology / mitochondrial signal were observed, fibroblasts [2]: 5 μM
- concentration at which effects on morphology / mitochondrial signal were observed, HeLa cells [3]: 125 μM
- MIC (C. neoformans CCF 1081): 33.3 µM
- MIC (K. rhizophila ATCC 9341): 2.1 µM
- MIC (C. albicans CCM 8215): 66.7 µM
- MIC (E. coli ATCC 3988): 1 µM

Structure (SMILES): COc1cc(O)c2c(c1)C(=O)C1=C(C[C@@H](OC(C)=O)[C@@H](C)O1)C2=O [Compound 7, (2R,3R)-6-hydroxy-8-methoxy-2-methyl-5,10-dioxo-3,4,5,10-tetrahydro-2H-benzo[g]chromen-3-yl acetate]
- EC50 [1]: 5700 nM
- EC50 (T. b. evansi AnTat 3/3): 700 nM
- concentration causing complete loss of live adherent cells, fibroblasts [2]: 125 µM
- concentration at which effects on morphology / mitochondrial signal were observed, fibroblasts [2]: > 25 μM
- concentration at which effects on morphology / mitochondrial signal were observed, HeLa cells [3]: > 125 μM
- MIC (C. neoformans CCF 1081): 33.3 µM
- MIC (K. rhizophila ATCC 9341): 4.2 µM
- MIC (C. albicans CCM 8215): 33.3 µM
- MIC (E. coli ATCC 3988): 4.2 µM
